Test results from patent US20090233796A1, “HERBICIDAL COMPOSITION” (SYNGENTA CROP PROTECTION, INC., priority 2004, published 2009).

Tests used:
Format in all cases: in vivo
[1] = test system: AMBROSIA TRIFIDA; test: Compound (A) with S-metolachlor, weed plots
Protocol: (§1) In these tests, various weeds were treated with S-metolachlor (SMOC) alone at an application rate equivalent to 1420 g per hectare, Compound (A) alone at rates equivalent to 20 g per hectare and […] and with mixtures of S-metolachlor and the Compound (A) at rates equivalent to the sum of these. The compositions were formulated as an emulsifyable concentrate (EC).
(§2) The results in the table under each application are the percentage of the plants that were killed.

[2] = test system: E[…]-GALLI; test: Compound (A) with S-metolachlor, weed plots; settings: 28 DAA, Trial 4.1
Protocol: as §1, §2

[3] = test system: SESBANIA EXALTATA; test: Compound (A) with S-metolachlor, weed plots; settings: 56 DAA, Trial 4.2
Protocol: as §1, §2

[4] = test system: C[…]; test: Compound (A) with S-metolachlor, weed plots
Protocol: as §1, §2

[5] = test system: ABUTILON THEOPHRASTI; test: Compound (A) with S-metolachlor, weed plots
Source text: […] The compositions were formulated as an emulsifyable concentrate (EC).
as §2

[6] = test system: Cyperus; test: Compound (A) with sulcotrione, weed plots; settings: 14 DAA, Trial 5.1
Protocol: In these tests, various weeds were treated with sulcotrione alone at an application rate equivalent to 1420 g per hectare, […] and Compound (A) at rates equivalent to the sum of these. The compositions were formulated as an emulsifyable concentrate (EC).
as §2

[7] = test system: Euphorbia; test: Compound (A) with prosulfuron, weed plots; settings: 13 DAA, No. 3.28
Protocol: (§3) In these tests, various weeds were treated with prosulfinuron alone at a rate equivalent to 35 g per hectare, […] and Compound (A) at rates equivalent to the sum of these. The compositions were formulated as an emulsifiable concentrate (EC).
(§4) The results in the tables under each application are the percentage of the plants that were killed.

[8] = test system: Brachiaria; test: Compound (A) with prosulfuron, weed plots; settings: 13 DAA, No. 3.27
Protocol: as §3, §4

[9] = test system: Veronica; test: Compound (A) with prosulfuron, weed plots; settings: 13 DAA, No. 3.25
Protocol: as §3, §4

[10] = test system: Rice; test: Compound (A) with prosulfuron, weed plots; settings: 13 DAA, No. 3.29
Protocol: as §3, §4

[11] = test system: Wheat; test: Compound (A) with prosulfuron, weed plots; settings: 13 DAA, No. 3.30
Protocol: as §3, §4

[12] = test system: COMMELINA SP.; test: Compound (A) with nicosulfuron, weed plots
Source text: In these tests, […] and Compound (A) at rates equivalent to the sum of these. The compositions were formulated as an emulsifyable concentrate (EC).
as §2

[13] = test system: Corn; test: Compound (A) with prosulfuron, weed plots; settings: 13 DAA, No. 3.26
Source text: (§5) In these tests, […] and Compound (A) at rates equivalent to the sum of these. The compositions were formulated as an emulsifiable concentrate (EC).
as §4

[14] = test system: Euphorbia; test: Compound (A) with primisulfuron, weed plots; settings: 45 DAA, Trial 3.20
Source text: as §5, §4

[15] = test system: DIGITARIA SANGUINALIS; test: Compound (A) with glyphosate, weed plots; settings: 52 DAA, No. 2.2
Source text: (§6) The compositions were formulated as an emulsifyable concentrate (EC).
as §2

[16] = test system: CYNODON DACTYLON; test: Compound (A) with glyphosate, weed plots; settings: 82 DAA, No. 2.1
Source text: as §6, §2

[17] = test system: HORDEUM PUSILLUM; test: Compound (A) with glyphosate, weed plots; settings: 13 DAA, No. 2.6
Source text: as §6, §2

[18] = test system: CYPERUS ROTUNDUS; test: Compound (A) with glyphosate, weed plots; settings: 2 DAA, No. 2.5
Source text: as §6, §2

[19] = test system: CYPERUS SP.; test: Compound (A) with glyphosate, weed plots
Source text: as §6, §2

[20] = test system: Ipomoea; test: Compound (A) with primisulfuron, weed plots; settings: 44 DAA, Trial 3.21
Protocol: In these tests, various weeds were treated with primisulfuron alone at a rate equivalent to 35 g per hectare, […] and Compound (A) at rates equivalent to the sum of these. The compositions were formulated as an emulsifiable concentrate (EC).
as §4

For `CCOC(=O)COc1ncccc1Oc1cc(-n2c(=O)cc(C(F)(F)F)n(C)c2=O)c(F)cc1Cl` [Compound (A)], the “percentage of the plants that were killed” value (from here on “percentage”) ([1]; 20 g/ha, 8 DAA, Trial 4.16) was 75%, the “percentage” value ([1]; 20 g/ha, 42 DAA, Trial 4.15) was 23% and the “percentage” value ([1]; 40 g/ha, 8 DAA, Trial 4.16) was 95%. The “percentage” value ([1]; 40 g/ha, 42 DAA, Trial 4.15) was 38%, the “percentage” value ([2]; 20 g/ha) was 53% and the “percentage” value ([2]; 40 g/ha) was 55%. For the same compound, the “percentage” value ([3]; 20 g/ha) was 50%, the “percentage” value ([3]; 40 g/ha) was 25% and the “percentage” value ([4]; 20 g/ha, 26 DAA, Trial 4.5) was 80%. For the same compound, the “percentage” value ([4]; 20 g/ha, 54 DAA, Trial 4.6) was 0%, the “percentage” value ([4]; 20 g/ha, 56 DAA, Trial 4.11) was 0% and the “percentage” value ([4]; 40 g/ha, 26 DAA, Trial 4.5) was 80%. For the same compound, the “percentage” value ([4]; 40 g/ha, 54 DAA, Trial 4.6) was 44%, the “percentage” value ([4]; 40 g/ha, 56 DAA, Trial 4.11) was 13% and the “percentage” value ([5]; 20 g/ha, 15 DAA, Trial 4.12) was 25%. For the same compound, the “percentage” value ([5]; 20 g/ha, 23 DAA, Trial 4.3) was 43%, the “percentage” value ([5]; 20 g/ha, 38 DAA, Trial 4.4) was 35% and the “percentage” value ([5]; 20 g/ha, 56 DAA, Trial 4.13) was 0%. For the same compound, the “percentage” value ([5]; 40 g/ha, 15 DAA, Trial 4.12) was 88%, the “percentage” value ([5]; 40 g/ha, 23 DAA, Trial 4.3) was 78% and the “percentage” value ([5]; 40 g/ha, 38 DAA, Trial 4.4) was 70%. For the same compound, the “percentage” value ([5]; 40 g/ha, 56 DAA, Trial 4.13) was 13%, the “percentage” value ([6]; 1.25 g/ha) was 50% and the “percentage” value ([6]; 5 g/ha) was 50%. For the same compound, the “percentage” value ([7]; 1.25 g/ha) was 50%, the “percentage” value ([7]; 2.5 g/ha) was 70% and the “percentage” value ([7]; 5 g/ha) was 70%. The “percentage” value ([8]; 1.25 g/ha) was 50%, the “percentage” value ([8]; 2.5 g/ha) was 60% and the “percentage” value ([8]; 5 g/ha) was 98%. The “percentage” value ([9]; 1.25 g/ha) was 80%, the “percentage” value ([9]; 2.5 g/ha) was 100% and the “percentage” value ([9]; 5 g/ha) was 100%. The “percentage” value ([10]; 1.25 g/ha) was 50%, the “percentage” value ([10]; 2.5 g/ha) was 70% and the “percentage” value ([10]; 5 g/ha) was 90%. The “percentage” value ([11]; 1.25 g/ha) was 80%, the “percentage” value ([11]; 2.5 g/ha) was 95% and the “percentage” value ([11]; 5 g/ha) was 100%. The “percentage” value ([12]; 5 g/ha, 10 DAA, No. 3.18) was 30%, the “percentage” value ([12]; 5 g/ha, 17 DAA, No. 3.19) was 20% and the “percentage” value ([12]; 10 g/ha, 10 DAA, No. 3.18) was 50%. For the same compound, the “percentage” value ([12]; 10 g/ha, 17 DAA, No. 3.19) was 30%, the “percentage” value ([12]; 20 g/ha, 10 DAA, No. 3.18) was 58% and the “percentage” value ([12]; 20 g/ha, 17 DAA, No. 3.19) was 50%. For the same compound, the “percentage” value ([13]; 1.25 g/ha) was 70%, the “percentage” value ([13]; 2.5 g/ha) was 90% and the “percentage” value ([13]; 5 g/ha) was 98%. For the same compound, the “percentage” value ([14]; 1.25 g/ha) was 50%, the “percentage” value ([14]; 2.5 g/ha) was 70% and the “percentage” value ([14]; 5 g/ha) was 70%. For the same compound, the “percentage” value ([15]; 10 g/ha) was 0%, the “percentage” value ([15]; 20 g/ha) was 0% and the “percentage” value ([16]; 10 g/ha) was 0%. For the same compound, the “percentage” value ([16]; 20 g/ha) was 0%, the “percentage” value ([17]; 10 g/ha) was 60% and the “percentage” value ([17]; 20 g/ha) was 70%. For the same compound, the “percentage” value ([18]; 10 g/ha) was 40%, the “percentage” value ([18]; 20 g/ha) was 75% and the “percentage” value ([19]; 10 g/ha, 1 DAA, No. 2.3) was 0%. The “percentage” value ([19]; 10 g/ha, 52 DAA, No. 2.4) was 0%, the “percentage” value ([19]; 20 g/ha, 1 DAA, No. 2.3) was 0% and the “percentage” value ([19]; 20 g/ha, 52 DAA, No. 2.4) was 0%. The “percentage” value ([20]; 1.25 g/ha) was 80%, the “percentage” value ([20]; 2.5 g/ha) was 100% and the “percentage” value ([20]; 5 g/ha) was 100%.
